For 27 compounds, EC50 results are on record in patent US11072598B2, “Somatostatin modulators and uses thereof” (CRINETICS PHARMACEUTICALS, INC., priority 2017, dated 2021).

The target in the assay is T1, human somatostatin receptor subtype 2 (Homo sapiens, UniProt P30874).
T1 construct: expressed in transfected cells
Nature of the assay: cAMP functional assay for SSTR2 agonists. It is filed as cell-based. The settings on record: inhibition of cAMP activities via human SST2 receptor (SSTR2), CHO-K1 cells; read-out: EC50. An excerpt:
General overview: All five SSTR subtypes are Gi coupled G-protein coupled receptors (GPCRs) that lead to decreases in intracellular cyclic AMP (cAMP) when activated by an agonist. Therefore, measurement of intracellular cAMP levels can be used to assess whether compounds of the invention are agonists of SSTR subtypes (John Kelly, Troy Stevens, W. Joseph Thompson, and Roland Seifert, Current Protocols in Pharmacology, 2005, 2.2.1-2.2). One example of an intracellular cAMP assay is described below. cAMP assay protocol:
Four days prior to the assay, 5,000 Chinese hamster ovary cells (CHO-K1, ATCC #CCL-61) stably expressing the human somatostatin receptor subtype 2 are plated in each well of a 96-well tissue culture-treated plate in Ham's F12 growth media (ThermoFisher #10-080-CM) supplemented with 10% donor bovine serum (Gemini Bio-Products #100-506), 100 U/mL penicillin; 100 ug/mL streptomycin; 2 mM L-glutamine (Gemini Bio-Products #400-110) and 0.2 mg/mL hygromycin B (GoldBio #31282-04-9). The cells are cultured at 37° C., 5% CO2 and 95% humidity. On the day of the assay, the media is aspirated and the cells are treated with 50 μL of 1.6 μM NKH477 (Sigma #N3290) plus various dilutions of compounds of the invention in assay buffer [1× Hank's Balanced Salt Solution (ThermoFisher #SH3058802), 0.5 mM HEPES pH 7.4, 0.1% bovine serum albumin, 0.2 mM 3-Isobutyl-1-methylxanthine (IBMX, VWR #200002-790)]. The cells are incubated for 20 minutes at 37° C. […] The cells are treated with 50 μL of lysis buffer (HRTF cAMP kit, Cisbio). The lysate is transferred to 384-well plates and cAMP detection and visualization antibodies are added and incubated for 1-24 hours at room temperature. The time-resolved fluorescent signal is read with a Tecan M1000Pro multiplate reader. The intracellular cAMP concentrations are calculated by regression to a standard curve and are plotted vs. the concentration of the compounds of the invention and the EC50 of the compounds are calculated using standard methods. All data manipluations are in GraphPad Prism v6.

Structures are written as SMILES. Some results are limits rather than exact numbers.

T1 sequence (P30874 whole entry): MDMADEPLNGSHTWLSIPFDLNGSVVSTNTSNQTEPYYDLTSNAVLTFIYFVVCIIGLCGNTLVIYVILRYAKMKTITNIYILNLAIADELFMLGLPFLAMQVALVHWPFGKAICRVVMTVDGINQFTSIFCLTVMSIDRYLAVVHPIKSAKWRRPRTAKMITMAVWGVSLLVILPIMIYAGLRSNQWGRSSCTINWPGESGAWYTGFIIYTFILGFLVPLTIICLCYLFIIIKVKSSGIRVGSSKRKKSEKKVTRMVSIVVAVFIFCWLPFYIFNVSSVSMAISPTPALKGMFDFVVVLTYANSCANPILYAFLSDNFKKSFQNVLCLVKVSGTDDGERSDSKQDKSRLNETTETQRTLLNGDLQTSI

As usually defined, the EC50 is the concentration needed to bring the measured effect to its halfway point. Consider `N#CCOc1cc(F)c2[nH]c(-c3c(N)ncc(-c4cc(F)cc(Cl)c4)c3N3CCC(N)CC3)nc2c1` [Compound 1-88, 2-({2-[2-amino-4-(4-aminopiperidin-1-yl)-5-(3-chloro-5-fluorophenyl)pyridin-3-yl]-7-fluoro-1H-1,3-benzodiazol-5-yl}oxy)acetonitrile], for which the EC50 is below 10 nM. Consider `Cc1cc(F)cc(-c2cnnc(-c3cc4ccc(Cl)cc4[nH]3)c2N2CCC(N)CC2)c1` [Compound 3-2, 1-[3-(6-chloro-1H-indol-2-yl)-5-(3-fluoro-5-methylphenyl)pyridazin-4-yl]piperidin-4-amine], for which the EC50 was below 10 nM. As for `COc1cc(F)cc2nc(-c3c(N)ncc(-c4cccc(Cl)c4)c3N3CCC(N)CC3)[nH]c12` [Compound 1-92, 4-(4-aminopiperidin-1-yl)-5-(3-chlorophenyl)-3-(5-fluoro-7-methoxy-1H-1,3-benzodiazol-2-yl)pyridin-2-amine], the figure is below 10 nM. As for `Cc1cc(F)cc(-c2cnc(N(C)C)c(-c3nc4cc(F)cc(F)c4[nH]3)c2N2CCC(N)CC2)c1` [Compound 4-5, 4-(4-aminopiperidin-1-yl)-3-(5,7-difluoro-1H-1,3-benzodiazol-2-yl)-5-(3-fluoro-5-methylphenyl)-N,N-dimethylpyridin-2-amine], the EC50 was below 10 nM.

On to `COc1ccc2[nH]c(-c3nncc(-c4cc(C)cc(F)c4)c3N3CCC(N)CC3)nc2c1` [Compound 3-10, 1-[5-(3-fluoro-5-methylphenyl)-3-(5-methoxy-1H-1,3-benzodiazol-2-yl)pyridazin-4-yl]piperidin-4-amine], for which the EC50 was below 10 nM. As for `Nc1ncc(-c2cc(F)cc(F)c2)c(N2CCC(N)CC2)c1-c1nc2cc(Cl)ccc2[nH]1` [Compound 1-81, 4-(4-aminopiperidin-1-yl)-3-(5-chloro-1H-1,3-benzodiazol-2-yl)-5-(3,5-difluorophenyl)pyridin-2-amine], the figure is below 10 nM; as for `Cc1cc(F)cc(-c2cnc(N)c(-c3nc4cc5c(cc4[nH]3)OC(F)(F)O5)c2N2CCC(N)CC2)c1` [Compound 1-31, 4-(4-aminopiperidin-1-yl)-3-{5,5-difluoro-4,6-dioxa-10,12-diazatricyclo[7.3.0.0^3,7]dodeca-1,3 (7),8,10-tetraen-11-yl}-5-(3-fluoro-5-methylphenyl)pyridin-2-amine], below 10 nM. In the case of `Cc1cc(F)cc(-c2cnc(N)c(-c3nc4ccc(F)c(F)c4[nH]3)c2N2CCC(N)CC2)c1` [Compound 1-15, 4-(4-aminopiperidin-1-yl)-3-(6,7-difluoro-1H-1,3-benzodiazol-2-yl)-5-(3-fluoro-5-methylphenyl)pyridin-2-amineine] it was below 10 nM; in that of `Cc1cc(F)cc(-c2cnc(N)c(-c3nc4cc(Cl)ccc4[nH]3)c2N2CC[C@@H](N)[C@H](C#N)C2)c1` (relative stereo) [Compound 1-42, trans-4-amino-1-[2-amino-3-(5-chloro-1H-1,3-benzodiazol-2-yl)-5-(3-fluoro-5-methylphenyl)pyridin-4-yl]piperidine-3-carbonitrile], below 10 nM; in that of `COc1cc(C)cc(-c2cnc(N)c(-c3nc4cc(F)cc(F)c4[nH]3)c2N2CCC(N)CC2)c1` [Compound 1-80, 4-(4-aminopiperidin-1-yl)-3-(5,7-difluoro-1H-1,3-benzodiazol-2-yl)-5-(3-methoxy-5-methylphenyl)pyridin-2-amine], below 10 nM. In the case of `CON=Cc1cccc2[nH]c(-c3c(N)ncc(-c4cc(C)cc(F)c4)c3N3CCC(N)CC3)nc12` [Compound 1-44, 4-(4-aminopiperidin-1-yl)-5-(3-fluoro-5-methylphenyl)-3-{4-[(methoxyimino)methyl]-1H-1,3-benzodiazol-2-yl}pyridin-2-amine], the EC50 is below 10 nM.

With `Cc1cc(F)cc(-c2cnnc(-c3cc4ccc(F)cc4[nH]3)c2N2CCC(N)CC2)c1` [Compound 3-4, 1-[3-(6-fluoro-1H-indol-2-yl)-5-(3-fluoro-5-methylphenyl)pyridazin-4-yl]piperidin-4-amine], the EC50 is below 10 nM.

Regarding `Cc1cc(F)cc(-c2cnc(N)c(-c3nc4cc(S(N)(=O)=O)ccc4[nH]3)c2N2CCC(N)CC2)c1` [Compound 1-9, 2-[2-amino-4-(4-aminopiperidin-1-yl)-5-(3-fluoro-5-methylphenyl)pyridin-3-yl]-1H-1,3-benzodiazole-5-sulfonamide], the EC50 is below 10 nM. As for `CO[C@@H]1CN(c2c(-c3cc(C)cc(F)c3)cnnc2-c2cc3ccc(Cl)cc3[nH]2)CC[C@H]1N` (relative stereo) [Compound 3-11, trans-1-[3-(6-chloro-1H-indol-2-yl)-5-(3-fluoro-5-methylphenyl)pyridazin-4-yl]-3-methoxypiperidin-4-amine], the figure is below 10 nM.

With `CNc1ncc(-c2cc(C)cc(F)c2)c(N2CCC(N)CC2)c1-c1nc2cc(C#N)cc(F)c2[nH]1` [Compound 1-89, 2-[4-(4-aminopiperidin-1-yl)-5-(3-fluoro-5-methylphenyl)-2-(methylamino)pyridin-3-yl]-7-fluoro-1H-1,3-benzodiazole-5-carbonitrile], the EC50 is below 10 nM. As for `Cc1cc(F)cc(-c2cnc(N)c(-c3nc4ncccc4[nH]3)c2N2CCC(N)CC2)c1` [Compound 1-52, 4-(4-aminopiperidin-1-yl)-5-(3-fluoro-5-methylphenyl)-3-{1H-imidazo[4,5-b]pyridin-2-yl}pyridin-2-amine], the figure is below 10 nM. As for `Cc1cc(F)cc(-c2cnnc(-c3[nH]c4cc(C#N)ccc4c3C#N)c2N2CCC(N)CC2)c1` [Compound 3-26, 2-[4-(4-aminopiperidin-1-yl)-5-(3-fluoro-5-methylphenyl)pyridazin-3-yl]-1H-indole-3,6-dicarbonitrile], the EC50 is below 10 nM.

Regarding `Cc1cc(C)cc(-c2cnc(N)c(-c3nc4cc(F)cc(F)c4[nH]3)c2N2CCC(N)CC2)c1` [Compound 1-78, 4-(4-aminopiperidin-1-yl)-3-(5,7-difluoro-1H-1,3-benzodiazol-2-yl)-5-(3,5-dimethylphenyl)pyridin-2-amine], the EC50 was below 10 nM. In the case of `Cc1cc(C#N)cc(-c2cnc(N)c(-c3nc4cc(Cl)ccc4[nH]3)c2N2CCC(N)CC2)c1` [Compound 1-25, 3-[6-amino-4-(4-aminopiperidin-1-yl)-5-(5-chloro-1H-1,3-benzodiazol-2-yl)pyridin-3-yl]-5-methylbenzonitrile] it was below 10 nM; in that of `COC(=O)c1ccc2cc(-c3nncc(-c4cc(C)cc(F)c4)c3N3CCC(N)CC3)[nH]c2c1` [Compound 3-18, methyl 2-[4-(4-aminopiperidin-1-yl)-5-(3-fluoro-5-methylphenyl)pyridazin-3-yl]-1H-indole-6-carboxylate], below 10 nM; in that of `Cc1cc(F)cc(-c2cnc(O)c(-c3nc4cc(F)ccc4[nH]3)c2N2CCC(N)CC2)c1` [Compound 2-10, 4-(4-aminopiperidin-1-yl)-3-(5-fluoro-1H-1,3-benzodiazol-2-yl)-5-(3-fluoro-5-methylphenyl)pyridin-2-ol], 10 to 100 nM.

`Cc1cc(F)cc(-c2cnc(N3CCNCC3)c(-c3nc4cc(Cl)ccc4[nH]3)c2N2CCC(N)CC2)c1` [Compound 4-11, 1-[3-(5-chloro-1H-1,3-benzodiazol-2-yl)-5-(3-fluoro-5-methylphenyl)-2-(piperazin-1-yl)pyridin-4-yl]piperidin-4-amine]: the EC50 was below 10 nM.

Turning to `Cc1cc(Cl)cc(-c2cnc(N)c(C=NOC(C)(C)C)c2N2CCC(N)CC2)c1` [Compound 1-38], the EC50 was below 10 nM. On to `CNc1ncc(-c2cc(C)cc(F)c2)c(N2CCC(NC)CC2)c1-c1nc2cc(Cl)ccc2[nH]1` [Compound 4-1, 3-(5-chloro-1H-1,3-benzodiazol-2-yl)-5-(3-fluoro-5-methylphenyl)-N-methyl-4-[4-(methylamino)piperidin-1-yl]pyridin-2-amine], for which the EC50 was below 10 nM. As for `Cc1cc(F)cc(-c2cnnc(-c3nc4cc(Cl)ccc4[nH]3)c2N2CCC(N)CC2)c1` [Compound 3-3, 1-[3-(5-chloro-1H-1,3-benzodiazol-2-yl)-5-(3-fluoro-5-methylphenyl)pyridazin-4-yl]piperidin-4-amine], the EC50 is below 10 nM. As to `Cc1cc(F)cc(-c2cnc(N)c(-c3nc4c(F)cc(OCC#N)cc4[nH]3)c2N2CCC(N)CC2)c1` [Compound 1-60, 2-({2-[2-amino-4-(4-aminopiperidin-1-yl)-5-(3-fluoro-5-methylphenyl)pyridin-3-yl]-4-fluoro-1H-1,3-benzodiazol-6-yl}oxy)acetonitrile], the EC50 was below 10 nM. As for `Cc1cc(F)cc(-c2cnnc(-c3cc4cc(C#N)ccc4[nH]3)c2N2CCC(N)CC2)c1` [Compound 3-17, 2-[4-(4-aminopiperidin-1-yl)-5-(3-fluoro-5-methylphenyl)pyridazin-3-yl]-1H-indole-5-carbonitrile], the figure is below 10 nM.
